Results published in patent US20240368168A1, “SARM1 ENZYME ACTIVITY INHIBITOR AND APPLICATION THEREOF” (ARTIVILA BIOPHARMA, priority 2021, published 2024).

Tests used:
dN-SARM1 protein [1] = target: T1, dN-SARM1 protein (Homo sapiens, UniProt Q6SZW1); assay: In vitro biochemical assay for inhibiting SARM1 enzymatic activity (% inhibition rate), PC6 fluorescence method; conditions: 20 μM compound; 50 μM NAD, 50 μM PC6, 50 μM NMN activator
T1 construct: the N-terminal mitochondrial localization signal peptide of SARM1 was removed
T1 sequence (Q6SZW1 28-724): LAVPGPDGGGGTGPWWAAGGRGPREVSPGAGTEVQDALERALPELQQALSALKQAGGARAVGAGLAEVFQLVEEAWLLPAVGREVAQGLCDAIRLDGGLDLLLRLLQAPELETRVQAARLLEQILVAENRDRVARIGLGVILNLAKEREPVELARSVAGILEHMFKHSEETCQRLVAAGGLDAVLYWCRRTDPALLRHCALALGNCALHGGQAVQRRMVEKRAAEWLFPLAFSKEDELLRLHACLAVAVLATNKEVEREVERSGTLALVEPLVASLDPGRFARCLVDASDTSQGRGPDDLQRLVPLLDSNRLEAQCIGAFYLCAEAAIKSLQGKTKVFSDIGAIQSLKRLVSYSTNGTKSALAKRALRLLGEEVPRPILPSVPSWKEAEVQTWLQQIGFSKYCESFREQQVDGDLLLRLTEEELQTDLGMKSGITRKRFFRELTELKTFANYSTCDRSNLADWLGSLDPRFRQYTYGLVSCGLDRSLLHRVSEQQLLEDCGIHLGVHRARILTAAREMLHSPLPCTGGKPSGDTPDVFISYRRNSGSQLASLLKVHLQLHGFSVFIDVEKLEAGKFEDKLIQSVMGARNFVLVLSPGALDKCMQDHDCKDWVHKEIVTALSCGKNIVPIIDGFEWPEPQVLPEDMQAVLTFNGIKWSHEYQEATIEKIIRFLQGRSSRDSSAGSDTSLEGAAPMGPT
Procedure: The compounds were subjected to PC6 fluorescence method measurement [Chinese Patent 202010528147.3] using the dN-SARM1 protein obtained through “(4) Protein extraction” in “Expression and purification of SARM1 protein” in the above biological activity example 1.
First, 0.05 μg/ml dN-SARM1 and 20 μM compound were incubated in 50 mM Tris-HCl (pH 7.5) solution for 10 min, and then added with 50 μM NAD and 50 μM PC6 as substrate and 50 μM NMN as activator for 30 minutes of reaction at room temperature. The concentration of each component was the final concentration in the reaction system.
During the reaction, PC6 fluorescence spectrum dynamics were detected by a microplate reader, wherein the excitation wavelength and emission wavelength for detection were 390 nm and 520 nm, respectively. Finally, the reaction rate was used to express the activity of the protein. The higher the reaction rate, the stronger the activity of the protein and the lower the inhibitory efficiency of the compound.

dN-SARM1 protein [2] = target: T1, dN-SARM1 protein; assay: In vitro biochemical assay for inhibiting SARM1 enzymatic activity (IC50), PC6 fluorescence method; conditions: 50 μM NAD, 50 μM PC6, 50 μM NMN activator
Procedure, shortened: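 dN-SARM1 (0.05 μg/ml, 50 mM Tris-HCl pH 7.5) preincubated 10 min at room temperature with compound in serial dilution from 200 μM. Reaction started with final 50 μM NAD, 50 μM PC6 substrate and 50 μM NMN activator, 30 min at room temperature. PC6 fluorescence (ex 390/em 520 nm) rate gives activity; IC50 derived.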

[3] = target: T2, SARM1 protein in iSARM1 (HEK293) cells (Homo sapiens, UniProt Q6SZW1); assay: Inhibitory activity in inducible SARM1 overexpressing cell line, intracellular cADPR level; assay type: cell-based; conditions: activator CZ-48 100 μM, cADPR content
T2 construct: The full-length SARM1 was synthesized into the pUC57 plasmid by WZ Biosciences Inc., and PCR was performed using pUC57-SARM1 as a DNA template
T2 sequence (Q6SZW1 28-724): T1 sequence (Q6SZW1 28-724)
Procedure, shortened: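 Inducible SARM1-overexpressing HEK293 cells preincubated 1.5 h with inhibitor (50 μM final), then activated with 100 μM CZ-48 for 16 h. Intracellular cADPR extracted with perchloric acid, NAD+ removed by NADase, and quantified by cyclase-coupled resazurin cycling assay (Ex/Em 544/599, 30 min kinetics) against cADPR standards; inhibition rate and IC50 calculated.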

| inhibition at 20 µM (dN-SARM1 protein [1]) [%] | IC50 (dN-SARM1 protein [2]) [nM] | EC50 [3] [nM] | SMILES |
| --- | --- | --- | --- |
| 50 to 89 |  |  | COCCOCCNC(=O)c1cccc(-c2cnc3ccc(N(C)C(=O)OC(C)(C)C)cn23)c1 [Compound 133, tert-butyl (3-(3-((2-(2-methoxyethoxy)ethyl)carbamoyl)phenyl)imidazo[1,2-a]pyridin-6-yl)(methyl)carbamate] |
| > 90 | 1000 to 10000 |  | COCCOCC(=O)Nc1cccc(-c2cnc3ccc(N)cn23)c1 [Compound 128, N-(3-(6-aminoimidazo[1,2-a]pyridin-3-yl)phenyl)-2-(2-methoxyethoxy)acetamide] |
| > 90 |  |  | CN(C(=O)OC(C)(C)C)c1ccc2ncc(-c3cccc(NC(=O)CN4CCC(O)C4)c3)n2c1 (stereo not shown) [Compound 148] |
| > 90 |  |  | Nc1cn2c(-c3ccccc3)cnc2cc1Cl [Compound 19] |
| > 90 | < 1000 |  | CNc1ccc2ncc(-c3cccc(S(=O)(=O)NC4CCOCC4)c3)n2c1 [Compound 110, 3-(6-(methylamino)imidazo[1,2-a]pyridin-3-yl)-N-(tetrahydro-2H-pyran-4-yl)benzenesulfonamide] |
| 50 to 89 |  |  | CC(C)(C)OC(=O)Nc1ccc2ncc(-c3ccccc3)n2n1 [Compound 22] |
| > 90 |  |  | CNc1ccc2ncc(Br)n2n1 [Compound 1, 3-bromo-N-methylimidazo[1,2-b]pyridazin-6-amine] |
| 50 to 89 |  |  | CN(C(=O)OC(C)(C)C)c1ccc2ncc(-c3ccccc3)n2n1 [Compound 95, tert-butyl methyl(3-phenylimidazo[1,2-b]pyridazin-6-yl) carbamate] |
| 50 to 89 |  |  | Ic1cccc2ncc(I)n12 [Compound 28] |
| 50 to 89 |  |  | CN(C(=O)OC(C)(C)C)c1ccc2ncc(-c3cccc(C(=O)NC4CCOCC4)c3)n2c1 [Compound 135] |
| > 90 |  |  | CN(C(=O)OC(C)(C)C)c1ccc2ncc(-c3cccc(NC(=O)CN4CCOCC4)c3)n2c1 [Compound 147] |
| 50 to 89 |  |  | CC(C)(C)OC(=O)Nc1ccc2ncc(-c3ccc(C(=O)NC4CCOCC4)s3)n2c1 [Compound 127, tert-butyl (3-(5-((tetrahydro-2H-pyran-4-yl)carbamoyl)thiophen-2-yl)imidazo[1,2-a]pyridin-6-yl)carbamate] |
| > 90 |  |  | CN(C(=O)C(F)(F)F)c1ccc2ncc(NC(=O)COCCOCCOCC(=O)Nc3cnc4ccc(N(C)C(=O)C(F)(F)F)cn34)n2c1 [Compound 142, N,N′-(3,3′-((2,2′-((oxybis(ethane-2,1-diyl))bis(oxy))bis (acetyl))bis(azadialkyl))bis(imidazo[1,2-a]pyridin-6,3-diyl))bis(2,2,2-trifluoro-N-methylacetamide)] |
| 50 to 89 |  |  | CC(C)(C)OC(=O)Nc1ccc2ncc(C(=O)NCCOCCOCCNC(=O)c3cnc4ccc(NC(=O)OC(C)(C)C)cn34)n2c1 [Compound 139] |
| 50 to 89 |  |  | CNc1ccc2ncc(-c3cccc(S(=O)(=O)NCCOCCOC)c3)n2c1 [Compound 109, N-(2-(2-methoxyethoxy)ethyl)-3-(6-(methylamino)imidazo[1,2-a]pyridin-3-yl)benzenesulfonamide] |
|  | < 1000 | 1000 to 10000 | Cc1ncsc1-c1ccc(CNC(=O)[C@@H]2C[C@@H](O)CN2C(=O)[C@@H](NC(=O)COCCOCCOCC(=O)Nc2cccc(-c3cnc4ccc(N(C)C(=O)OC(C)(C)C)cn34)c2)C(C)(C)C)cc1 [Compound 119, Tert-butyl (3-(3-((S)-13-((2S,4R)-4-hydroxy-2-((4-(4-methylthiazol-5-yl)benzyl)carbamoyl)pyrrolidin-1-carbonyl)-14,14-dimethyl-11-oxo-3,6,9-trioxa-12-azaglutaramide)phenyl)imidazo[1,2-a]pyridin-6-yl)(methyl)carbamate] |
|  | 1000 to 10000 | < 1000 | CN(C(=O)OC(C)(C)C)c1ccc2ncc(-c3cccc(NC(=O)COCc4ccccc4)c3)n2c1 [Compound 248] |
|  | 1000 to 10000 | 1000 to 10000 | CNc1ccc2ncc(-c3ccccc3Cl)n2c1 [Compound 68, 3-(2-chlorophenyl)-N-methylimidazo[1,2-a]pyridin-6-amine] |

| inhibition at 20 µM (dN-SARM1 protein [1]) [%] | IC50 (dN-SARM1 protein [2]) [nM] | EC50 [3] [nM] | SMILES |
| --- | --- | --- | --- |
|  | < 1000 | < 1000 | CN(C(=O)OC(C)(C)C)c1ccc2ncc(-c3cccc4ncccc34)n2c1 [Compound 262] |
|  | 1000 to 10000 | 1000 to 10000 | COc1ccc(-c2cnc3ccc(N(C)C(=O)OC(C)(C)C)cn23)cc1 [Compound 14] |
|  | 1000 to 10000 | 1000 to 10000 | NS(=O)(=O)c1cccc(-c2cnc3ccccn23)c1 [Compound 9] |
|  | < 1000 | 1000 to 10000 | CN(C(=O)OC(C)(C)C)c1ccc2ncc(-c3cccc(CNC(=O)OC(C)(C)C)c3)n2c1 [Compound 254] |
|  | 1000 to 10000 | < 1000 | Cc1ncsc1-c1ccc(CNC(=O)[C@@H]2C[C@@H](O)CN2C(=O)[C@@H](NC(=O)COCCOCCOCC(=O)N(C)c2ccc3ncc(-c4ccccc4Cl)n3c2)C(C)(C)C)cc1 [Compound 118, (2S,4R)-1-((S)-15-(tert-butyl)-2-(3-(2-chlorophenyl)imidazo[1,2-a]pyridin-6-yl)-3,13-dioxo-5,8,11-trioxa-2,14-diazahexadecane-16-acyl)-4-hydroxy-N-(4-(4-methylthiazol-5-yl)benzyl) pyrrolidin-2-carboxamide] |
|  | 1000 to 10000 | 1000 to 10000 | CNc1ccc2ncc(-c3cccc(OCCOCc4ccccc4)c3)n2c1 [Compound 157] |
| 50 to 89 |  |  | CN1CCC(C(=O)Nc2cccc(-c3cnc4ccc(N(C)C(=O)OC(C)(C)C)cn34)c2)CC1 [Compound 48] |
|  | 1000 to 10000 | 1000 to 10000 | CN(C(=O)OC(C)(C)C)c1ccc2ncc(-c3ccncc3)n2c1 [Compound 17] |
|  | 1000 to 10000 | < 1000 | CN(C(=O)OC(C)(C)C)c1ccc2ncc(-c3ccc(S(N)(=O)=O)cc3)n2c1 [Compound 6] |
|  | < 1000 | 1000 to 10000 | CN(C(=O)OC(C)(C)C)c1ccc2ncc(-c3cc4cc[nH]c4cn3)n2c1 [Compound 161, tert-butyl (3-(1H-pyrrolo[2,3-c]pyridin-5-yl)imidazo[1,2-a]pyridin-6-yl)(methyl)carbamate] |
|  | 1000 to 10000 | 1000 to 10000 | CNc1ccc2ncc(-c3cccc(CNC(=O)c4ccccc4)c3)n2c1 [Compound 253] |
|  | < 1000 | 1000 to 10000 | CN(C(=O)OC(C)(C)C)c1ccc2ncc(-c3cccc4cn[nH]c34)n2c1 [Compound 259] |
|  | 1000 to 10000 | < 1000 | C=CCN(C(=O)OC(C)(C)C)c1ccc2ncc(-c3cccc(N)c3)n2c1 [Compound 211, tert-butyl allyl(3-(3-aminophenyl)imidazo[1,2-a]pyridin-6-yl)carbamate] |
|  | < 1000 | 1000 to 10000 | CC(=O)Nc1cccc(-c2cnc3ccc(N(C)C(=O)OC(C)(C)C)cn23)c1 [Compound 96, tert-butyl (3-(3-acetylaminophenyl)imidazo[1,2-a]pyridin-6-yl)(methyl)carbamate] |
|  | < 1000 | 1000 to 10000 | CNc1ccc2ncc(-c3cccc(N(C)C(=O)C4CCOCC4)c3)n2c1 [Compound 159] |
|  | 1000 to 10000 | 1000 to 10000 | CNc1ccc2ncc(-c3cccs3)n2c1 [Compound 69] |
|  | 1000 to 10000 | < 1000 | O=C(Nc1cccc(-c2cnc3ccc(N4CCOCC4)cn23)c1)[C@H]1C[C@H](N2CCCCC2)C1 [Compound 227] |

| SMILES | inhibition at 20 µM (dN-SARM1 protein [1]) [%] | IC50 (dN-SARM1 protein [2]) [nM] | EC50 [3] [nM] |
| --- | --- | --- | --- |
| CCOC(=O)c1ccc(-c2cnc3ccc(NC(=O)OC(C)(C)C)cn23)s1 [Compound 126, ethyl 5-(6-((tert-butoxycarbonyl)amino)imidazo[1,2-a]pyridin-3-yl)thiophen-2-carboxylate] | > 90 |  |  |
| CN1CCN(c2ccc3nccn3c2)CC1 [Compound 35] | 50 to 89 |  |  |
